In patent US4075194A, “Novel synthetic undecapeptide and clinical assay” (Yeda Research and Development Co., Ltd., priority 1976, dated 1978):
Ends that are not written are not given here.

B1: Pure CEA: carcinoembryonic antigen purified from colonic tumor tissue by perchloric acid extraction, chromatography and block electrophoresis (protein, UniProt P06731 35-685, looked up)
Cell adhesion molecule CEACAM5: KLTIESTPFNVAEGKEVLLLVHNLPQHLFGYSWYKGERVDGNRQIIGYVIGTQQATPGPAYSGREIIYPNASLLIQNIIQNDTGFYTLHVIKSDLVNEEATGQFRVYPELPKPSISSNNSKPVEDKDAVAFTCEPETQDATYLWWVNNQSLPVSPRLQLSNGNRTLTLFNVTRNDTASYKCETQNPVSARRSDSVILNVLYGPDAPTISPLNTSYRSGENLNLSCHAASNPPAQYSWFVNGTFQQSTQELFIPNITVNNSGSYTCQAHNSDTGLNRTTVTTITVYAEPPKPFITSNNSNPVEDEDAVALTCEPEIQNTTYLWWVNNQSLPVSPRLQLSNDNRTLTLLSVTRNDVGPYECGIQNELSVDHSDPVILNVLYGPDDPTISPSYTYYRPGVNLSLSCHAASNPPAQYSWLIDGNIQQHTQELFISNITEKNSGLYTCQANNSASGHSRTTVKTITVSAELPKPSISSNNSKPVEDKDAVAFTCEPEAQNTTYLWWVNGQSLPVSPRLQLSNGNRTLTLFNVTRNDARAYVCGIQNSVSANRSDPVTLDVLYGPDTPIISPPDSSYLSGANLNLSCHSASNPSPQYSWRINGIPQQHTQVLFIAKITPNNNGTYACFVSNLATGRNNSIVKSITVSASGTSPGLSA

Experiments:
anti-CEA(1-11)-BSA serum = assay: Inhibition of inactivation of CEA(1-11)-T4 by anti-CEA(1-11)-BSA serum; assay type: binding, rabbit; settings: for inhibition of the inactivation of CEA(1-11)-T4: in words
Description: Inactivation and Inhibition of Inactivation of CEA(1-11)-coated T4 Bacteriophage. The preparation of CEA(1-11)-coated T4 bacteriophage was carried out according to the procedure described by Haimovich et al., Biochim. Biophys. Acta 207 (1970) 115, making use of glutaraldehyde as crosslinking agent. The resulting modified bacteriophage preparation was tested for inactivation with anti-CEA(1-11)-BSA serum, by incubation for 21/2 hr at 37° in the presence of different dilutions of the antiserum, and monitoring the surviving phage by subsequent plating with bacteria.
In inhibition experiments the inhibitors were allowed to react at room temperature, overnight, with the amount of antiserum that would have caused approximately 90% inactivation of the bacteriophage conjugate, Haimovich et al. Biochim. Biophys. Acta 207 (1970) 125. The modified bacteriophage was then added to the mixture and the number of surviving phage was determined as described above. The percentage of inhibition was calculated from the extent of inactivation in the presence and in the absence of the inhibitor.

[1] = Immunization of rabbits, antibody production; assay type: in vivo, rabbit; settings: intradermal in complete Freund's adjuvant, in words
Description: Immunization Procedure. Antisera against the CEA(1-11) peptide were obtained by immunizing rabbits with CEA(1-11) as the free peptide and with the two conjugates CEA(1-11)-A--L and CEA(1-11)-BSA. The rabbits were immunized by multisite intradermal injections in complete Freund's adjuvant. Each rabbit received two injections of 4 mg at 2-week intervals and was subsequently bled weekly from the marginal vein, starting 1 week after the last injection.

[2] = system: antisera agglutinating CEA(1-11)-A--L-coated sheep erythrocytes; assay: Inhibition of passive hemagglutination; assay type: binding; settings: serum concentration twice that of the hemagglutination titer
Description: Hemagglutination and Inhibition of Hemagglutination. Sheep erythrocytes were treated with formalin, tanned, and coated with the CEA(1-11) peptide or with the conjugates (CEA(1-11)-A--L or CEA(1-11)-BSA, Herbert: Handbook Exp. Immun., Oxford (1964), 720, Blackwell, Sci. Pub.
Passive microhemagglutination tests, Kabat: Structural Concepts in Immun. and Immunochem. (1968), Holt, Reinhart and Winston, Inc., N.Y., were performed on disposable microtiter plates (Cooke Engineering Co., Alexandira, Va.) by 2-fold serial dilutions of antisera in phosphate-buffered saline (0.15 M NaCl-0.01 M sodium phosphate buffer, pH 7.0), containing 0.1% ovalbumin (twice crystallized, Schwarz/Mann). The plates were incubated at room temperature and read after 2 and 4 hr.
In inhibition experiments serial dilutions of the respective inhibitor were allowed to react for 30 min with the antisera (at the last dilution that had given positive agglutination) prior to the addition of the coated erythrocytes. Inhibition results were also read after 2 and 4 hr.

Molecule | inhibition of the inactivation of CEA(1-11)-T4 (anti-CEA(1-11)-BSA serum) | Inhibition (%) (anti-CEA(1-11)-BSA serum; inhibitor concentration 0.001 μg/ml) | Inhibition (%) (anti-CEA(1-11)-BSA serum; inhibitor concentration 0.0033 μg/ml) | Inhibition (%) (anti-CEA(1-11)-BSA serum; inhibitor concentration 0.01 μg/ml) | Inhibition (%) (anti-CEA(1-11)-BSA serum; inhibitor concentration 0.033 μg/ml) | Inhibition (%) (anti-CEA(1-11)-BSA serum; inhibitor concentration 0.1 μg/ml) | Inhibition (%) (anti-CEA(1-11)-BSA serum; inhibitor concentration 0.33 μg/ml) | Inhibition (%) (anti-CEA(1-11)-BSA serum; inhibitor concentration 1 μg/ml) | Inhibition (%) (anti-CEA(1-11)-BSA serum; inhibitor concentration 3 μg/ml) | antibody production on immunization [1] | lowest concentration of inhibitor that still prevents agglutination ([2]; antiserum against CEA(1-11)-A--L) [µg/mL] | lowest concentration of inhibitor that still prevents agglutination ([2]; antiserum against CEA(1-11)-BSA) [µg/mL] | lowest concentration of inhibitor that still prevents agglutination ([2]; antiserum against Crude CEA) [µg/mL] | lowest concentration of inhibitor that still prevents agglutination ([2]; antiserum against Pure CEA) [µg/mL]
LNFPTSEITLK [CEA(1-11), synthetic undecapeptide corresponding to the first eleven NH2-terminal residues of CEA, with leucine replacing valine in the 11-position] | could be inhibited | 0 | 38 | 64 | 82 | 92 | 100 | 98 | 100 | antisera of low titer | 1 | 10 | 100 | 1
B1 | No inhibition |  |  |  |  |  |  |  |  |  |  |  |  | 
